Laboratory results from patent publication US20260166040A1 (AMGEN INC., priority 2022, published 2026).
Values belong to the compound of their own block, whether it stands above or below them.

What was measured:
BCRP transporter = molecular target: T1, BCRP transporter (Homo sapiens, UniProt Q9UNQ0); assay: In vitro BCRP transporter inhibition; type: in vitro ADME
T1 sequence (Q9UNQ0 1-655): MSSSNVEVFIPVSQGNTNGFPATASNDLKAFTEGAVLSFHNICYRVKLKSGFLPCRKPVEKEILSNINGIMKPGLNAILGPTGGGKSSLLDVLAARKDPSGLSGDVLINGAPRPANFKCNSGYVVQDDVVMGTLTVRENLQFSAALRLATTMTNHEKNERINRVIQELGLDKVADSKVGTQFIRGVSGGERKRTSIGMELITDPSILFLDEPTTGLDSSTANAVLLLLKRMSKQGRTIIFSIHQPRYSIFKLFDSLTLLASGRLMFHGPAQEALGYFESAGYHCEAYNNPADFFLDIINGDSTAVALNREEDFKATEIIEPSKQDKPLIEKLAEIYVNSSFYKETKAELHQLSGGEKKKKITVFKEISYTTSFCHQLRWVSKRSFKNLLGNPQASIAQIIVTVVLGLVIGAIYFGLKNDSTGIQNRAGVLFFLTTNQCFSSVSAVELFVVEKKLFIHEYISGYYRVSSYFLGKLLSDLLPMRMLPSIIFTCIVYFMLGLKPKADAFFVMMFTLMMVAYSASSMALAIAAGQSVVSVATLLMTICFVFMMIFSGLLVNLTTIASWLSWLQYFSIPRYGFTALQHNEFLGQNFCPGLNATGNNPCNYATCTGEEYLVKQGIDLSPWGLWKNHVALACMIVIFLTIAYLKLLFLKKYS

[1] = system: phosphorylation of extracellular signal-regulated kinase (ERK); conditions: preclinical studies; cited from earlier work
[2] = Phase I crossover study: safety and tolerability (treatment-emergent adverse events); type: in vivo, human; conditions: for Treatment-emergent adverse events: healthy subjects; for Safety and tolerability: healthy male and female subjects
[3] = Phase I crossover study: plasma pharmacokinetics of sotorasib coadministered with rosuvastatin; type: in vivo, human; conditions: 960 mg sotorasib + 10 mg rosuvastatin, (range)
Experimental: Times of all PK samples were recorded to the nearest minute.

clinical = conditions: human, in vivo, 10 mg
Experimental: On Day 1, rosuvastatin was administered as a single 10 mg dose (1×10 mg tablet).
All subjects fasted overnight (at least 10 hours) and refrained from consuming water for 1 hour prior to dosing. Subjects refrained from consuming water until 2 hours postdose, excluding the amount of water consumed at dosing, and fasted until 4 hours postdose. At all other times during the study, subjects may have consumed water ad libitum.
Blood samples for determination of rosuvastatin plasma concentrations and PK parameters were collected at hour 0 and at hours 0.5, 1, 2, 3, 4, 5, 6, 8, 10, 12, 24, 36, 48, 72, 96, and 120 hours postdose following administration of rosuvastatin on Days 1 and 6.
Pharmacokinetic analysis was carried out using actual dose administered (mg) and actual postdose blood sampling times. When an actual time was not recorded, it was set to missing and excluded from PK analysis and statistics with sponsor approval.
The parameters Cmax, time of the last quantifiable plasma concentration (tlast), and tmax were obtained directly from the concentration-time profiles. For multiple peaks, the highest postdose concentration was reported as Cmax. In the case that multiple peaks were of equal magnitude, the earliest tmax was reported.

[4] = incidence !2%; cited from earlier work
[5] = cited from earlier work
[6] = system: plasma proteins, mostly albumin; conditions: reversible, independent of plasma concentrations; cited from earlier work

SMILES: C=CC(=O)N1CCN(c2nc(=O)n(-c3c(C)ccnc3C(C)C)c3nc(-c4c(O)cccc4F)c(F)cc23)[C@@H](C)C1 (atropisomer, axis not shown) [sotorasib]
BCRP inhibition (BCRP transporter): inhibitor of BCRP transporter in vitro
Inhibition of ERK phosphorylation [1]: inhibited nearly all detectable phosphorylation
Treatment-emergent adverse events ([2]; 960 mg sotorasib coadministered with 10 mg rosuvastatin): No treatment-emergent adverse events
Safety and tolerability ([2]; rosuvastatin 10 mg in combination with sotorasib 960 mg, single oral doses): safe and well tolerated
tlast [3]: 48.0 (24.0-48.0) h

AUCinf (clinical; both): 36.2 (60.1) h*ng/mL
AUCinf GLSM (clinical; both): 0.0362 µg·h/mL
AUClast GLSM (clinical; both): 0.0332 µg·h/mL
Cmax (clinical; both): 3.80 (57.8) ng/mL
Cmax GLSM (clinical; both): 3.80 ng/mL
half-life (clinical; both): 13.8 h
tmax (clinical; both): 3 h
AUC(0-t) (clinical; both, po): 0.0332 µg·h/mL
CL/F (clinical): 276 (60.1) L/h
SMILES: CC(C)c1nc(N(C)S(C)(=O)=O)nc(-c2ccc(F)cc2)c1/C=C/[C@@H](O)C[C@@H](O)CC(=O)O [rosuvastatin]
Most commonly reported adverse reactions [4]: headache, myalgia, abdominal pain, asthenia, and nausea
Elimination half-life ([5]; human, in vivo): approximately 19 hours
Excreted in the feces (rosuvastatin and its metabolites) ([5]; human, in vivo): 90%
Radiolabeled dose recovered as metabolite ([5]; human, in vivo): approximately 10%
Cmax and AUC dose dependence ([5]; oral administration): increased in approximate proportion to dose
Absolute bioavailability ([5]; oral): approximately 20%
Treatment-emergent adverse events ([2]; 10 mg rosuvastatin alone): No treatment-emergent adverse events
Safety and tolerability ([2]; single oral dose rosuvastatin 10 mg alone): safe and well tolerated
Bound to plasma proteins [6]: 88%
